Laboratory results as given in patent US9452170B2, “Compounds and methods for inducing chondrogenesis” (The California Institute for Biomedical Research, priority 2013, dated 2016).

Assays:
[1] = Quantitation of compounds in rat knee joint extract after intra-articular injection (LC-MS/MS); type: in vivo; settings: knee joint extract (whole joint, acetonitrile extract), other: intra-articular injection, 30 μL of 100 μM solution, 30 μL of 100 μM intra-articular, read-out: Concentration observed in extract; for concentration at 0 h: T = 0 h; for concentration at 0.5 h: T = 0.5 h; for concentration at 1 h: T = 1 h; for concentration at 2 h: T = 2 h
Protocol: LC-MS/MS analysis for Chondrogenesis compounds were performed using an API 3000 equipped with an Agilent 1100 HPLC and a Leap Technologies autosampler. A HPLC Phenomenex 5 micron, 100 A Luna C18 (2) analytical column with dimensions of 2.0×50 mm (Part No. 00B-4252-B0) at a temperature of 30 C, flow rate of 0.6 mL/min, injection volume of 10 uL, and a 6.0 min run time was used. Mobile phase A1 was 0.1% formic acid in water and Mobile phase B1 was 0.1% formic acid in acetonitrile. The gradient was 90% A1/10% B1 at time 0; 90% A1/10% B1 at time 1.0 min; 10% A1/90% B1 at time 2.0 min; 10% A1/90% B1 at time 4.0 min; 90% A1/10% B1 at time 4.10 min; 90% A1/10% B1 at time 6.0 min. Analytes and internal standard quantitation were performed using Multiple Reaction Monitoring (MRM) quantitation method. Listed below are specific methods used to dose and measure exposure in plasma and the observed concentration in joint extract.
Calibration standard curve was prepared by serial dilution of a concentrated, spike solution of the compound in internal standard diluents. Internal standard diluent was prepared by dissolving the internal standard compound at a certain concentration in acetonitrile. Rat knee joint samples for each time points were individually crushed and transferred into each centrifuge tube and added 1.0-mL of internal standard diluent. Each centrifuge tube was vortexed and centrifuged for 30 minutes. From each tube, supernatant was removed and injected onto the column for analysis. In addition, plasma samples were obtained by retro-orbital bleeds into heparin coated tubes and stored at −80 C and later processed by analogy to the protocol described above for rat plasma samples.
30 μL of 100 μM compound solution (PBS with 0.1% DMSO) was injected into the intra-articular space of the right hinder knee of each animal. The animals were euthanized at indicated time points (0 hr, 0.5 hr, 1 hr, 2 hr, 4 hr and 6 hr). Four animals were used for each timepoint. The injected knee joints were harvested, flash freeze in liquid nitrogen. The whole joints were grounded into powder while frozen, mixed with 1 mL internal standard-containing acetonitrile, incubated at 4° C. overnight, vortexed and centrifuged for 30 min. The supernatant from each sample was analyzed using LC-MS/MS. Data shown in Table 2 indicates the observed concentration in knee extract. ND=Not determined.

Human MSCs = assay: Human chondrocyte differentiation assay (immunostaining for type II collagen, Sox9 and COMP); type: cell-based; settings: 168 h, compound 1 μM, 7 days, vs DMSO vehicle, read-out: Biological Activity (increase in staining intensity compared to vehicle control)
Protocol: Human MSCs (50,000) were plated into each well of a 96-well plate and cultured overnight. Compounds (in DMSO solution) were added to the cells at a final concentration of 1 μM, and the cells were cultured for 7 days at 5% CO2, 37° C. The cells were fixed with 10% formalin solution at room temperature for 10 min, and immunostained using antibodies specific for type II collagen (Abcam), Sox9 (Santa Cruz) and cartilage oligomeric matrix protein (COMP, Santa Cruz), and fluorescently labeled secondary antibodies (Li-Cor). The total intensity of the staining was measured using Oddyssey CLx imaging system (Li-Cor). Vehicle (DMSO) was used as control to determine the basal level of chondrocyte differentiation. […] Representative data are shown in Table 1 [A: >50% increase in staining intensity compared to vehicle control; B: 30-50% increase in staining intensity compared to vehicle control].

Row | SMILES | concentration at 0 h [1] | concentration at 0.5 h [1] | concentration at 1 h [1] | concentration at 2 h [1] | concentration at 4 h ([1]; T = 4 h) | concentration at 6 h ([1]; T = 6 h) | activation at 1 µM (Human MSCs)
1 | COCCc1ccc(NC(=O)c2ccccc2C(=O)O)cc1 [Compound 21] | 434 ng/mL | 9.1 ng/mL | 4.9 ng/mL | 0 ng/mL | – | – | > 50%
2 | CNS(=O)(=O)c1ccc(N2Cc3ccccc3C2=O)cc1 [Compound 27] | 592 ng/mL | 35.4 ng/mL | 6.3 ng/mL | 2.5 ng/mL | – | – | > 50%
3 | N#Cc1ccc(C(=O)Nc2ccccc2S(=O)(=O)N2CCOCC2)cc1 [Compound 62] | 411 ng/mL | 109 ng/mL | 52.6 ng/mL | 15.7 ng/mL | – | – | > 50%
4 | CN(Cc1cccc(NC(=O)c2ccccc2C(=O)O)c1)S(C)(=O)=O [Compound 73] | 587 ng/mL | 28.5 ng/mL | 9.41 ng/mL | 2.6 ng/mL | – | – | > 50%
5 | CS(=O)(=O)c1ccc(C(=O)Nc2ccccc2S(=O)(=O)N2CCOCC2)cc1 [Compound 113] | 566 ng/mL | 25.3 ng/mL | 4.2 ng/mL | 0 ng/mL | – | – | > 50%

Now from value to compound, other results behind:

Row | concentration at 0 h [1] | concentration at 0.5 h [1] | concentration at 1 h [1] | concentration at 2 h [1] | concentration at 4 h ([1]; T = 4 h) | concentration at 6 h ([1]; T = 6 h) | SMILES | activation at 1 µM (Human MSCs)
6 | 926 ng/mL | 50.6 ng/mL | 4.4 ng/mL | 0 ng/mL | – | – | COCCc1ccc(NC(=O)c2ccccc2NS(C)(=O)=O)cc1 [Compound 117] | > 50%
7 | 4430 ng/mL | 1100 ng/mL | 741 ng/mL | 338 ng/mL | 38 ng/mL | 0 ng/mL | O=C(Nc1ccccc1S(=O)(=O)N1CCOCC1)c1ccc(F)cc1 [Compound 123] | > 50%
8 | 7280 ng/mL | 2940 ng/mL | 1360 ng/mL | 546 ng/mL | – | – | CC1COCCN1S(=O)(=O)c1ccccc1NC(=O)c1ccc(F)cc1 (centres unmarked) [Compound 128] | > 50%
9 | 109 ng/mL | 3.5 ng/mL | 0 ng/mL | 0 ng/mL | – | – | COCCc1ccc(NC(=O)c2ccccc2NS(=O)(=O)c2ccccc2)cc1 [Compound 156] | > 50%
